{"source": "patent US12496302B2", "about": "“Compositions and methods for the treatment and diagnosis of cancer” (The General Hospital Corporation, priority 2020, dated 2025)", "assay_type_in_all_cases": "cell-based", "key": {"U2OS or MCF7 cells": {"system": "U2OS or MCF7 cells", "experiment": "Cell survival of U2OS or MCF7 cells treated with YW-1842 alone", "protocol": "FIGS. 6F-6G show TRDMT1 inhibitor YW-1842 delays the repair of DSBs at the transcribed genome. (FIG. 6F) U2OS or MCF7 cells were treated with or without compound YW-1842 at the indicated concentration. The survival rate of these cells was shown (n=3, Mean±SD). (FIG. 6G) SCE WT cells were transfected with TA-KR and were cultured with 2.5 μM YW-1842 or not for 6 hours, γ-H2AX (n=3, 50 cells per replicated, Mean±SD) were stained and quantified.\nApproximately 500 U2OS/TRDMT1 KO U2OS/MCF-7/HCC1954/HCC1937 cells and TRDMT1 siRNA or GFP-TRDMT1 WT/G155V/K251R transfected cells were seeded in 6 cm dish with or without TRDMT1 inhibitors (2.5 μM/L). 6 hrs after seeding, cells were exposed to cisplatin (1134357, Sigma, 1 μM/L), ATMi (KU55933, C9867, Sigma, 10 μM/L), ATRi (AZ20, S7050, Selleck, 1 μM/L) or PARPi (Olaparib, AZD2461, Sigma, 1 μM/L) at indicated concentration or ionizing radiation (IR). After 7-14 days, colonies were fixed and stained with 0.3% crystal violet in methanol, and the number of colonies was counted manually."}, "U2OS (EJ5-GFP) cells": {"system": "U2OS (EJ5-GFP) cells", "experiment": "EJ5-GFP NHEJ reporter assay", "details": "2.5 μM/L for 6 h, TRDMT1 wild type cells", "protocol": "(§1) FIGS. 6A-6E show TRDMT1 Inhibitors specifically sensitizes cells to DNA damage agents. (FIG. 6A) SCE WT cells were transfected with TA-KR and were cultured with 2.5 μM/L, compound YW-1842 or not for 6 hours, m^5C (n=3, 50 cells per replicated, Mean±SD) was stained and quantified. DR-GFP (FIG. 6B) or EJ5-GFP (FIG. 6C) cells were pre-treated with 2.5 μM/L, compound YW-1842 for 6 h or TRDMT1 siRNA for 48 h, or DMSO. Then the cells were transfected with NLS-I-SceI plasmid to induce DSB. The efficiency of HR (FIG. 6B) or NHEJ (FIG. 6C) was analyzed by flow-cytometry (n=3, Mean±SD). (FIG. 6D) After seeding, MCF-7, HCC1954, and HCC1937 cells were pre-treated with or without 2.5 μM/L compound YW-1842 for 6 h, then cultured with chemotherapy drugs (1 μM/L, Cisplatin; 1 μM/L ATRi AZ20; 10 μM/L, ATMi KU55933; 1 μM/L, PARPi Olaparib for 10 days. The survival rate of these cells was analyzed (n=3, Mean±SD). (FIG. 6E) TRDMT1 KO U2OS cells were transfected with GFP-TRDMT1^WT or GFP-TRDMT1^G155V with or without 2.5 μM/L, compound YW-1842, the survival rate of these cells after IR or Cisplatin was shown (n=3, Mean±SD).\n(§2) Using a previously described method[Lan, L. et al. The ACF1 complex is required for DNA double-strand break repair in human cells. […] The GFP signal arising from the recombination (HR) or non-homologous end joining (NHEJ) events were measured by flow cytometry."}, "U2OS (DR-GFP) cells": {"system": "U2OS (DR-GFP) cells", "experiment": "DR-GFP HR reporter assay", "details": "2.5 μM/L for 6 h, in comparison with DMSO treated group", "protocol": "as §1, §2"}, "[1]": {"system": "cancer cell lines (HST578, MBAMD231, HCC1937, HCC1954)", "experiment": "Cell survival (colony) assay with TRDMT1i alone, Example 19", "protocol": "FIGS. 14A-14C show TRDMT1i alone reduce cancer cell survival in a dose-dependent manner. (FIG. 14A) Survival rate of HR proficient (HR+) HST578 cancer cells with and without siBRCA1 and/or TRDMT1i YW-1842 at indicated dose. The survival rate of these cells was analyzed (n=3, Mean±SD). (FIG. 14B) Survival rate of MBAMD231 (HR+) and HCC1937 (HRD) cells. The survival rate of these cells was analyzed (n=3, Mean±SD). (FIG. 14C) Cell survival rate in different cancer cell lines via colony-forming assay with the treatment of Imatinib at indicated dose (n=3, mean+/−S.D.). Cell lines are listed in order with the expression level from SYCP2high to SYCP2low.\nHCC1500, HCC1954, BT549, MCF7 and MDAMB468 were cultured in Roswell Park Memorial Institute (RPMI) 1640 Medium (Sigma, R8758) with 10% (vol/vol) fetal bovine serum (FBS, XY Cell Culture, FBS-500) at 37° C., 5% CO2. siBRCA1 (L-003461-00, Dharmacon) was transfected with Lipofectamine RNAiMax (Invitrogen; Carlsbad, CA, USA). PARPi Olaparib (AZD2281/Ku-0059436, Sellekchem, S1060) and Pol theta inhibitor Novobiocin (Sigma) were used.\nCells were seeded in each 6-cm dish and cultured as described above. They were treated with drugs with indicated dose in medium after seeding. After 7-10 days, colonies were fixed and stained with 0.3% crystal violet in methanol, and the number of colonies was counted manually."}}, "data": [{"smiles": "COc1cc2nc(-n3cc(-c4ccc(S(C)(=O)=O)cc4)cn3)nc(-c3ccsc3)c2cc1OC", "note": "[YW-1842, 6,7-dimethoxy-2-(4-(4-(methylsulfonyl)phenyl)-1H-pyrazol-1-yl)-4-(thiophen-3-yl)quinazoline]", "values": [{"measurement": "cell killing by compound alone", "setting": "U2OS or MCF7 cells; 2.5 μM/L", "value": "does not kill cells alone"}, {"measurement": "antiproliferative effect (cell proliferation)", "setting": "U2OS or MCF7 cells; concentration below 5 μM/L", "value": "did not prohibit cell proliferation"}, {"measurement": "non-homologous end joining (NHEJ) efficiency", "setting": "U2OS (EJ5-GFP) cells", "value": "no obvious changes"}, {"measurement": "HR-mediated repair of I-SceI-generated DSBs", "setting": "U2OS (DR-GFP) cells", "value": "diminished the repair of I-SceI-generated DSBs"}, {"measurement": "cell killing of HCC1954", "setting": "[1]; HCC1954 (HRD, high SYCP2)", "value": "efficiently killed HCC1954"}, {"measurement": "cell survival, TRDMT1i alone", "setting": "[1]; HR-proficient HST578 cells", "value": "kills HR-proficient cancer cells HST578 in a dose-dependent manner"}, {"measurement": "TRDMT1i sensitivity with BRCA1 knockdown", "setting": "[1]; HST578 cells with siBRCA1", "value": "significantly increased"}, {"measurement": "cell killing across cancer cell lines by SYCP2 level and HR status", "setting": "[1]; cell lines ordered SYCP2high to SYCP2low", "value": "killed SYCP2-high cancer cell lines and HR deficient cells the most efficiently"}]}]}
